Laboratory results taken from article PMC6402482 (ACS chemical biology, 2018).

Assays:
cancer cell lines = details: most cancer cell lines; cited from earlier work
active PARP1 enzyme = active PARP1 enzyme (Homo sapiens, UniProt P09874); assay: PARP1 enzyme inhibition ex vivo; details: 0–100 nM on active PARP1 enzyme (10 U), triplicate
primary cortical neurons [1] = assay: Oxygen-glucose deprivation; type: cell-based, rat; details: concentrations >100 nM
primary cortical neurons [2] = assay: Mitochondrial and cytosolic NAD+ 24 h after OGD; type: cell-based, rat; details: 10 nM, n = 6/group
[3] = Comet tail intensity assay of DNA damage and repair after H2O2; type: cell-based, mouse; details: 10 µM, 200 µM H2O2, repair over 30 min
[4] = tested on: rat primary cortical neurons; assay: Cytotoxicity in primary cortical neurons, LDH release at 24 h; type: cell-based; details: n = 6/group
[5] = Glutamate-induced ferroptotic cell death in HT22 cells, LDH release at 24 h; type: cell-based, mouse; details: 5 mM glutamate, LDH at 24 h, n = 5/group

Chain of active PARP1 enzyme (P09874 whole entry): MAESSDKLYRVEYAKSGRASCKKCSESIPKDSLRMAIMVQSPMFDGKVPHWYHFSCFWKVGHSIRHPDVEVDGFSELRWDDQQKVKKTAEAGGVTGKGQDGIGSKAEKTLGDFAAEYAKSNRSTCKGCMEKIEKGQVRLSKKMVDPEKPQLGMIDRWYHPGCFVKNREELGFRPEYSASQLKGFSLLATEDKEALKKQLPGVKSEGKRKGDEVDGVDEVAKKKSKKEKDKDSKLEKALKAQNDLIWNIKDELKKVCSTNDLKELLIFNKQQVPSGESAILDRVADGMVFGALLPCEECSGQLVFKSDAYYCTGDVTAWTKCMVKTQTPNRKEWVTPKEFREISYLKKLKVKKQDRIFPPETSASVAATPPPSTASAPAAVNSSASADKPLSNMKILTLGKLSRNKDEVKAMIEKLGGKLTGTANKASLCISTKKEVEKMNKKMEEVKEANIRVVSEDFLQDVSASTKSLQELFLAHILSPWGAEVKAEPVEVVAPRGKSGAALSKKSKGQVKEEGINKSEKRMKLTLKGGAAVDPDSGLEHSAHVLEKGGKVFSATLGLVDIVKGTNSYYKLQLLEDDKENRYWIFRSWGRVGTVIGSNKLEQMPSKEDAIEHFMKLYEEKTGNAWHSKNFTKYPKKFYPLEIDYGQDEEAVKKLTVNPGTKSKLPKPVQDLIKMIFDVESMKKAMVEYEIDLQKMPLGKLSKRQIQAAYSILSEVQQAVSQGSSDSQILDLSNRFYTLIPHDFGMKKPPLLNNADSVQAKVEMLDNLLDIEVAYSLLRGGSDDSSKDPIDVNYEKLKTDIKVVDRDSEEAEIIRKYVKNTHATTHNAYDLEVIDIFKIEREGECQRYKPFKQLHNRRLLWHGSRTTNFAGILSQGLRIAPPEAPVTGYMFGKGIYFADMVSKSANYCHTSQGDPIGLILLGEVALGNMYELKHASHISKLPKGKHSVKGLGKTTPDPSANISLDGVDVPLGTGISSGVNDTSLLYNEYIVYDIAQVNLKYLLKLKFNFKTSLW

## C[C@@]1(c2nc3c(C(N)=O)cccc3[nH]2)CCCN1 [veliparib, 2-[(S)-2-methylpyrrolidin-2-yl]-1H-benzimidazole-4-carboxamide]
Cancer cell lines
  Tumoricidal concentration: > 100 µM
Active PARP1 enzyme
  PARP1 inhibition, veliparib versus XJB-veliparib: similar
Primary cortical neurons [1]
  Protection against OGD at higher concentrations: no additional protection
Primary cortical neurons [2]
  Mitochondrial NAD+ stores after OGD: preserved
[3]
  Effect on DNA repair after H2O2: impeded DNA repair
[4]
  Concentration at which neurotoxicity (defined as >10% cell death) was seen: 1000 nM
[5]
  Inhibition of glutamate-induced ferroptosis: inhibit glutamate-induced ferroptosis
